In patent US10246453B2, “Benzenesulfonamide compounds and their use as therapeutic agents” (Xenon Pharmaceuticals Inc., priority 2016, dated 2019):
Where a name gives a salt, the structure may show the parent alone.

Assays:
NaV1.1 = NaV1.1 (Homo sapiens (Human), UniProt P35498); test: Sodium Influx Assay (Flux), NaV1.1; type: cell-based; conditions: Trex HEK293 cells, ANG2 dye; arithmetic mean
NaV1.6 = NaV1.6 (Homo sapiens (Human), UniProt Q9UQD0); test: Sodium Influx Assay (Flux), NaV1.6; conditions: read-out: Flux NaV1.6 IC50; Trex HEK293 cells, ANG2 dye; arithmetic mean
NaV1.5 = NaV1.5 (Homo sapiens (Human), UniProt Q14524); test: Sodium Influx Assay (Flux), NaV1.5; conditions: read-out: Flux NaV1.5 IC50; Trex HEK293 cells, ANG2 dye; arithmetic mean
Sequence of NaV1.5 (Q14524 other isoform, or with tags, fused parts or gaps): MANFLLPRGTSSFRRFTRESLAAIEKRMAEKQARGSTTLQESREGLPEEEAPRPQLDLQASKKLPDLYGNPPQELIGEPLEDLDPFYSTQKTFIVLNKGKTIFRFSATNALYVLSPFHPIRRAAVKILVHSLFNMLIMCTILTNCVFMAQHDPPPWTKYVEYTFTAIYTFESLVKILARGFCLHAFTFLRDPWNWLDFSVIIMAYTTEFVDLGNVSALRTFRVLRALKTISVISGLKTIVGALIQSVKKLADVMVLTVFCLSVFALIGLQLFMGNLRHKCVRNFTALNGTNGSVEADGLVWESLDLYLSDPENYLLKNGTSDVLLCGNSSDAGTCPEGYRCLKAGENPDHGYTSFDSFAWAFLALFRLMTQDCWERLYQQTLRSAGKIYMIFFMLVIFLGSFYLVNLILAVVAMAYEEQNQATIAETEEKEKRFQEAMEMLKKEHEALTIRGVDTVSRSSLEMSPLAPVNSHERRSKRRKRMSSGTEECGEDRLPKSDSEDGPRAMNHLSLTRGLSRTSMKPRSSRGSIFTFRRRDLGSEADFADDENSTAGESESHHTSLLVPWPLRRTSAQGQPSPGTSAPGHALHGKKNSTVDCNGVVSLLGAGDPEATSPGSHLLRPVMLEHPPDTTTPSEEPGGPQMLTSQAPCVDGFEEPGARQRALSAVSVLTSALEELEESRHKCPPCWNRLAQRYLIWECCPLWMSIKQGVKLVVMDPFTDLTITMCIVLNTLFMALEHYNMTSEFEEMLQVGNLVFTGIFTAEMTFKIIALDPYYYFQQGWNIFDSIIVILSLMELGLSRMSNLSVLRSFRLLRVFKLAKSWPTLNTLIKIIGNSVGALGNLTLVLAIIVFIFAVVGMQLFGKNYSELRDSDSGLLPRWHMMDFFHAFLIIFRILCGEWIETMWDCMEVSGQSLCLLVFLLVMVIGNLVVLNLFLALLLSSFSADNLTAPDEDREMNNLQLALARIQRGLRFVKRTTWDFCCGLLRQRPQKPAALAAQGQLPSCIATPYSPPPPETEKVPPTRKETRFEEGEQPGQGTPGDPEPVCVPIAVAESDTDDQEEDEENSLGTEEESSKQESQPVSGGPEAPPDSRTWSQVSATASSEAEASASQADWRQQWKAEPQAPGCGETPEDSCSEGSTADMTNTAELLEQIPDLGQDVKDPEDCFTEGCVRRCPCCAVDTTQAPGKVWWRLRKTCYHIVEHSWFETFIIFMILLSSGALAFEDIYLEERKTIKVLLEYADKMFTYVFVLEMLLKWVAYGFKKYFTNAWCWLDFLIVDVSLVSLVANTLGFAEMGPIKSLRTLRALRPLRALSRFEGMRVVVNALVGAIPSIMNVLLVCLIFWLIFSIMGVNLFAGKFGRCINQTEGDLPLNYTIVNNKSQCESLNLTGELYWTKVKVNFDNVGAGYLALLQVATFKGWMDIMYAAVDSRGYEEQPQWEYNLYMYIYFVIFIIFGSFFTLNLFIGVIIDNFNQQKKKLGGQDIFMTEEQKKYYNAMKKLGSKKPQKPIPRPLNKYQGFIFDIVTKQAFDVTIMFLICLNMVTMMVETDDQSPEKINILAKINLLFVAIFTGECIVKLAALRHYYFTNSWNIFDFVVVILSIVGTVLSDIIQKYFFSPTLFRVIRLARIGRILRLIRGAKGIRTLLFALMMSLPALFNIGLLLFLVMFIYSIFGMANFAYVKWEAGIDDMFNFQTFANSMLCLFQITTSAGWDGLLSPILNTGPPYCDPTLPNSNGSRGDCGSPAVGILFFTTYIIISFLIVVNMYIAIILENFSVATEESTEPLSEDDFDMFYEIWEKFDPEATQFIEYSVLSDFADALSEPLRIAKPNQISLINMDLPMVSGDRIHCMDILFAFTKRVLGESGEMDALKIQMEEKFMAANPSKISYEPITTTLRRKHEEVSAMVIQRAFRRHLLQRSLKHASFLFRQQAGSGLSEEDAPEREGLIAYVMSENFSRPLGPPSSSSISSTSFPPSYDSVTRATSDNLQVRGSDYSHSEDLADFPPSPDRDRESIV

IC50 (NaV1.1)	IC50 (NaV1.6)	SMILES	IC50 (NaV1.5)
3.15 µM	3.18 µM	CC1(Oc2ccc(S(=O)(=O)Nc3nccs3)cc2Cl)CCN(Cc2cccc(C(F)F)c2)CC1 [Example 21, 3-chloro-4-((1-(3-(difluoromethyl)benzyl)-4-methylpiperidin-4-yl)oxy)-N-(thiazol-2-yl)benzenesulfonamide]	4.69 µM
9.41 µM	0.877 µM	CN(c1cc(F)c(S(=O)(=O)Nc2cscn2)cc1Cl)[C@H]1CCN(Cc2c[nH]c3ccccc23)C1 [Example 182, (S)-4-((1-((1H-indol-3-yl)methyl)pyrrolidin-3-yl)(methyl)amino)-5-chloro-2-fluoro-N-(thiazol-4-yl)benzene-sulfonamide 2,2,2-trifluoroacetate]	9.86 µM
4.11 µM	5.31 µM	Cc1cc(S(=O)(=O)Nc2cnsc2)c(F)cc1N(C)[C@H]1CCN(Cc2ccccc2)C1 [Example 307, (S)-4-((1-benzylpyrrolidin-3-yl)(methyl)amino)-2-fluoro-N-(isothiazol-4-yl)-5-methyl benzenesulfonamide formate]	9.79 µM
2.27 µM	2.22 µM	CN(c1cc(F)c(S(=O)(=O)Nc2cscn2)c(F)c1)[C@H]1CCN(Cc2ccccc2)C1 [Example 286, (S)-4-((1-benzylpyrrolidin-3-yl)(methyl)amino)-2,6-difluoro-N-(thiazol-4-yl)benzenesulfonamide formate]	1.99 µM
12.4 µM	0.464 µM	O=S(=O)(Nc1nccs1)c1ccc(OC2CCN(Cc3ccccc3F)CC2)c(Cl)c1 [Example 90, 3-chloro-4-(1-(2-fluorobenzyl)piperidin-4-yloxy)-N-(thiazol-2-yl)benzenesulfonamide]	8.16 µM
26 µM	4.85 µM	CN(c1cc(F)c(S(=O)(=O)Nc2cscn2)cc1Cl)[C@H]1CCN(Cc2cccc(C(C)(C)O)c2)C1 [Example 161, (S)-5-chloro-2-fluoro-4-((1-(3-(2-hydroxypropan-2-yl)benzyl)pyrrolidin-3-yl)(methyl)amino)-N-(thiazol-4-yl)benzenesulfonamide formate]	> 30 µM
9.89 µM	1.03 µM	CN(c1cc(F)c(S(=O)(=O)Nc2cscn2)cc1Cl)[C@H]1CCN(Cc2cccc(N3CCC3)n2)C1 [Example 317, (S)-4-((1-((6-(azetidin-1-yl)pyridin-2-yl)methyl)pyrrolidin-3-yl)(methyl)amino)-5-chloro-2-fluoro-N-(thiazol-4-yl)benzenesulfonamide 2,2,2-trifluoroacetate]	8.12 µM
6.03 µM	4.45 µM	CN(c1cc(F)c(S(=O)(=O)Nc2cscn2)cc1Cl)[C@H]1CCN(Cc2ccc(C(F)(F)F)o2)C1 [Example 164, (S)-5-chloro-2-fluoro-4-(methyl(1-((5-(trifluoromethyl)furan-2-yl)methyl)pyrrolidin-3-yl)amino)-N-(thiazol-4-yl)benzene-sulfonamide 2,2,2-trifluoroacetate]	12.9 µM
29.3 µM	0.529 µM	Cc1cc(S(=O)(=O)Nc2cscn2)c(F)cc1N(C)[C@H]1CCN(Cc2ncccc2OC(C)C)C1 [Example 116, (S)-2-fluoro-4-((1-((3-isopropoxypyridin-2-yl)methyl)pyrrolidin-3-yl)(methyl)amino)-5-methyl-N-(thiazol-4-yl)benzenesulfonamide formate]	> 30 µM
13.1 µM	0.967 µM	CN(c1cc(F)c(S(=O)(=O)Nc2cscn2)cc1Br)[C@H]1CCN(Cc2ccccc2)C1 [Example 230, (S)-4-((1-benzylpyrrolidin-3-yl)(methyl)amino)-5-bromo-2-fluoro-N-(thiazol-4-yl)benzenesulfonamide 2,2,2-trifluoroacetate]	23 µM
9.48 µM	0.05 µM	Cc1cc(S(=O)(=O)Nc2cscn2)c(F)cc1N(C)[C@H]1CCN(Cc2csc(C3CC3)n2)C1 [Example 138, (S)-4-((1-((2-cyclopropylthiazol-4-yl)methyl)pyrrolidin-3-yl)(methyl)amino)-2-fluoro-5-methyl-N-(thiazol-4-yl)benzenesulfonamide]	10.4 µM
3.18 µM	0.664 µM	Cc1cccc(CN2CC[C@@H](Nc3ccc(S(=O)(=O)Nc4nccs4)cc3Cl)C2)c1 [Example 70, (R)-3-chloro-4-((1-(3-methylbenzyl)pyrrolidin-3-yl)amino)-N-(thiazol-2-yl)benzenesulfonamide]	4.2 µM
8.89 µM	0.024 µM	Cc1c(N(C)[C@H]2CCN(Cc3cccc(C(F)(F)F)n3)C2)cc(F)c(S(=O)(=O)Nc2cscn2)c1F [Example 224, (S)-2,6-difluoro-3-methyl-4-(methyl(1-((6-(trifluoromethyl)pyridin-2-yl)methyl)pyrrolidin-3-yl)amino)-N-(thiazol-4-yl)benzenesulfonamide 2,2,2-trifluoroacetate]	> 30 µM

The remaining lines, values behind:

SMILES	IC50 (NaV1.1)	IC50 (NaV1.6)	IC50 (NaV1.5)
O=S(=O)(Nc1nccs1)c1ccc(N[C@@H]2CCN(Cc3cccc(Cl)c3)C2)c(Cl)c1 [Example 69, (R)-3-chloro-4-((1-(3-chlorobenzyl)pyrrolidin-3-yl)amino)-N-(thiazol-2-yl)benzenesulfonamide]	1.76 µM	0.697 µM	6.15 µM
O=S(=O)(Nc1cscn1)c1c(F)cc(O[C@H]2CCN(Cc3ccccc3)C2)c(Cl)c1F [Example 268, (S)-4-((1-benzylpyrrolidin-3-yl)oxy)-3-chloro-2,6-difluoro-N-(thiazol-4-yl)benzenesulfonamide hydrochloride]	> 30 µM	4.92 µM	28.2 µM
O=S(=O)(Nc1cscn1)c1c(F)cc(O[C@H]2CCN(Cc3ccccc3)C2)c(Br)c1F [Example 274, (S)-4-((1-benzylpyrrolidin-3-yl)oxy)-3-bromo-2,6-difluoro-N-(thiazol-4-yl)benzenesulfonamide formate]	> 30 µM	1.85 µM	10 µM
Cc1cc(S(=O)(=O)Nc2cscn2)c(F)cc1N(C)[C@H]1CCN(Cc2ccccc2F)C1 [Example 155, (S)-2-fluoro-4-((1-(2-fluorobenzyl)pyrrolidin-3-yl)(methyl)amino)-5-methyl-N-(thiazol-4-yl)benzenesulfonamide]	12.6 µM	0.22 µM	14.4 µM
O=S(=O)(Nc1nccs1)c1ccc(OC2CCN(Cc3cccnc3)CC2)c(Cl)c1 [Example 64, 3-chloro-4-((1-(pyridin-3-ylmethyl)piperidin-4-yl)oxy)-N-(thiazol-2-yl)benzenesulfonamide]	> 30 µM	5.63 µM	> 30 µM
CC(C)Oc1cccc(CN2CC[C@H](N(C)c3cc(F)c(S(=O)(=O)Nc4cscn4)cc3Cl)C2)c1 [Example 177, (S)-5-chloro-2-fluoro-4-((1-(3-isopropoxybenzyl)-pyrrolidin-3-yl)(methyl)amino)-N-(thiazol-4-yl)benzene-sulfonamide compound with triethylamine (1:0.35)]	3.91 µM	3.15 µM	7.52 µM
CC[C@@H](c1ccccc1Cl)N1CC[C@H](N(C)c2cc(F)c(S(=O)(=O)Nc3cscn3)cc2Cl)C1 [Example 248, 5-chloro-4-(((S)-1-((S)-1-(2-chlorophenyl)propyl)pyrrolidin-3-yl)(methyl)amino)-2-fluoro-N-(thiazol-4-yl)benzenesulfonamide 2,2,2-trifluoroacetate]	5.53 µM	3.31 µM	7.06 µM
O=S(=O)(Nc1nccs1)c1ccc(OC2CCN(CC3CCCCC3)CC2)c(Cl)c1 [Example 6, 3-chloro-4-((1-(cyclohexylmethyl)piperidin-4-yl)oxy)-N-(thiazol-2-yl)benzenesulfonamide 2,2,2-trifluoroacetate]	12.2 µM	7.52 µM	> 30 µM
CC1(C)CNCCC1Oc1ccc(S(=O)(=O)Nc2ncns2)cc1Cl (stereo not drawn) [Example 1, 3-chloro-4-((3,3-dimethylpiperidin-4-yl)oxy)-N-(1,2,4-thiadiazol-5-yl)benzenesulfonamide 2,2,2-trifluoroacetate]	> 30 µM	10.3 µM	> 30 µM
C[C@H](c1ccccc1)N1CCC(Oc2cc(F)c(S(=O)(=O)Nc3nccs3)cc2Cl)CC1 [Example 56, (R)-5-chloro-2-fluoro-4-((1-(1-phenylethyl)piperidin-4-yl)oxy)-N-(thiazol-2-yl)benzenesulfonamide 2,2,2-trifluoroacetate]	12.5 µM	0.392 µM	10.1 µM
Cc1c(N(C)[C@H]2CCN(Cc3ccccc3F)C2)cc(F)c(S(=O)(=O)Nc2cscn2)c1F [Example 236, (S)-2,6-difluoro-4-((1-(2-fluorobenzyl)pyrrolidin-3-yl)(methyl)amino)-3-methyl-N-(thiazol-4-yl)benzenesulfonamide formate]	24.3 µM	0.067 µM	> 30 µM
O=S(=O)(Nc1cscn1)c1ccc(OC2CCN(C3(c4ccccc4)CC3)CC2)c(Cl)c1 [Example 303, 3-chloro-4-((1-(1-phenylcyclopropyl)piperidin-4-yl)oxy)-N-(thiazol-4-yl)benzenesulfonamide]	7.06 µM	2.44 µM	4.62 µM
CN(c1cc(F)c(S(=O)(=O)Nc2cscn2)cc1C(F)F)[C@H]1CCN(Cc2ccccc2)C1 [Example 270, (S)-4-((1-benzylpyrrolidin-3-yl)(methyl)amino)-5-(difluoromethyl)-2-fluoro-N-(thiazol-4-yl)benzenesulfonamide formate]	21.9 µM	4.74 µM	28.7 µM
O=S(=O)(Nc1nccs1)c1ccc(OC2CCN(C3CCCCC3)CC2)c(Cl)c1 [Example 7, 3-chloro-4-((1-cyclohexylpiperidin-4-yl)oxy)-N-(thiazol-2-yl)benzenesulfonamide 2,2,2-trifluoroacetate]	> 30 µM	27.3 µM	> 30 µM
